Results: patent publication US12077503B2, “Substituted cyclic amides and their use as herbicides” (FMC CORPORATION, priority 2015, dated 2024)

Experiments:
Experiment in all cases: Test C postemergence
Assay type in all cases: in vivo
Conditions in all cases: scale 0 to 100, 0 no effect, 100 complete control
[1] = tested on: Galium (catchweed bedstraw, Galium aparine)
Summary of the method: (§1)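 Greenhouse test: seeds in a loam and sand blend treated preemergence, or seedlings at the 1- to 4-leaf stage (2 to 18 cm) in a peat, vermiculite and limestone mix treated postemergence, with test chemicals in a surfactant-containing non-phytotoxic solvent. Scored by eye at 13 to 15 d relative to controls, 0 (no effect) to 100 (complete control).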

Kochia (Kochia scoparia) = tested on: Kochia (Kochia scoparia)
Summary of the method: as §1

[2] = tested on: barnyardgrass (Echinochloa crus-galli)
Summary of the method: as §1

[3] = tested on: blackgrass (Alopecurus myosuroides)
Summary of the method: as §1

[4] = tested on: crabgrass, large (large crabgrass, Digitaria sanguinalis)
Summary of the method: as §1

[5] = tested on: foxtail, giant (giant foxtail, Setaria faberii)
Summary of the method: as §1

[6] = tested on: johnsongrass (Sorghum halepense)
Summary of the method: as §1

[7] = tested on: lambsquarters (Chenopodium album)
Summary of the method: as §1

[8] = tested on: morningglory (Ipomoea coccinea)
Summary of the method: as §1

[9] = tested on: nutsedge, yellow (yellow nutsedge, Cyperus esculentus)
Summary of the method: as §1

[10] = tested on: oat, wild (wild oat, Avena fatua)
Summary of the method: as §1

[11] = tested on: oilseed rape (Brassica napus)
Summary of the method: as §1

[12] = tested on: pigweed (Amaranthus retroflexus)
Summary of the method: as §1

[13] = tested on: ryegrass, Italian (Italian ryegrass, Lolium multiflorum)
Summary of the method: as §1

[14] = tested on: waterhemp (common waterhemp, Amaranthus rudis)
Summary of the method: as §1

[15] = tested on: wheat (winter wheat, Triticum aestivum)
Summary of the method: as §1

Q: Which “Plant response rating, Galium” value ([1]; 31 g ai/ha) does the source give for CN1C[C@H](c2ccc(F)c(F)c2)[C@@H](C(=O)Nc2ccccc2F)C1=O [Compound 596, (3S,4S)-4-(3,4-difluorophenyl)-N-(2-fluorophenyl)-1-methyl-2-oxo-3-pyrrolidinecarboxamide] here?
A: 40

Q: And the “Plant response rating, Galium” value ([1]; 62 g ai/ha)?
A: 45

Q: What about the “Plant response rating, Galium” value ([1]; 125 g ai/ha) of the same molecule?
A: 60

Q: And the “Plant response rating, Galium” value ([1]; 250 g ai/ha)?
A: 60

Q: And the “Plant response rating, Kochia” value (Kochia (Kochia scoparia); 31 g ai/ha)?
A: 30

Q: And the “Plant response rating, Kochia” value (Kochia (Kochia scoparia); 62 g ai/ha)?
A: 30

Q: What about the “Plant response rating, Kochia” value (Kochia (Kochia scoparia); 125 g ai/ha) of the same molecule?
A: 35

Q: And the “Plant response rating, Kochia” value (Kochia (Kochia scoparia); 250 g ai/ha)?
A: 60

Q: And the “Plant response rating, Barnyardgrass” value ([2]; 31 g ai/ha)?
A: 0

Q: And the “Plant response rating, Barnyardgrass” value ([2]; 62 g ai/ha)?
A: 30

Q: What about the “Plant response rating, Barnyardgrass” value ([2]; 125 g ai/ha) of the same molecule?
A: 45

Q: And the “Plant response rating, Barnyardgrass” value ([2]; 250 g ai/ha)?
A: 65

Q: And the “Plant response rating, Blackgrass” value ([3]; 31 g ai/ha)?
A: 0

Q: What about the “Plant response rating, Blackgrass” value ([3]; 62 g ai/ha) of the same molecule?
A: 0

Q: And the “Plant response rating, Blackgrass” value ([3]; 125 g ai/ha)?
A: 0

Q: And the “Plant response rating, Blackgrass” value ([3]; 250 g ai/ha)?
A: 10

Q: What about the “Plant response rating, Crabgrass, Large” value ([4]; 31 g ai/ha) of the same molecule?
A: 30

Q: What about the “Plant response rating, Crabgrass, Large” value ([4]; 62 g ai/ha) of the same molecule?
A: 65

Q: And the “Plant response rating, Crabgrass, Large” value ([4]; 125 g ai/ha)?
A: 65

Q: And the “Plant response rating, Crabgrass, Large” value ([4]; 250 g ai/ha)?
A: 75

Q: What about the “Plant response rating, Foxtail, Giant” value ([5]; 31 g ai/ha) of the same molecule?
A: 10

Q: And the “Plant response rating, Foxtail, Giant” value ([5]; 62 g ai/ha)?
A: 20

Q: What about the “Plant response rating, Foxtail, Giant” value ([5]; 125 g ai/ha) of the same molecule?
A: 50

Q: What about the “Plant response rating, Foxtail, Giant” value ([5]; 250 g ai/ha) of the same molecule?
A: 80

Q: What about the “Plant response rating, Johnsongrass” value ([6]; 31 g ai/ha) of the same molecule?
A: 0

Q: What about the “Plant response rating, Johnsongrass” value ([6]; 62 g ai/ha) of the same molecule?
A: 0

Q: What about the “Plant response rating, Johnsongrass” value ([6]; 125 g ai/ha) of the same molecule?
A: 0

Q: And the “Plant response rating, Johnsongrass” value ([6]; 250 g ai/ha)?
A: 10

Q: What about the “Plant response rating, Lambsquarters” value ([7]; 31 g ai/ha) of the same molecule?
A: 35

Q: And the “Plant response rating, Lambsquarters” value ([7]; 62 g ai/ha)?
A: 35

Q: What about the “Plant response rating, Lambsquarters” value ([7]; 125 g ai/ha) of the same molecule?
A: 40

Q: And the “Plant response rating, Lambsquarters” value ([7]; 250 g ai/ha)?
A: 55

Q: What about the “Plant response rating, Morningglory” value ([8]; 31 g ai/ha) of the same molecule?
A: 0

Q: And the “Plant response rating, Morningglory” value ([8]; 62 g ai/ha)?
A: 10

Q: And the “Plant response rating, Morningglory” value ([8]; 125 g ai/ha)?
A: 25

Q: What about the “Plant response rating, Morningglory” value ([8]; 250 g ai/ha) of the same molecule?
A: 50

Q: And the “Plant response rating, Nutsedge, Yellow” value ([9]; 31 g ai/ha)?
A: 0

Q: What about the “Plant response rating, Nutsedge, Yellow” value ([9]; 62 g ai/ha) of the same molecule?
A: 0

Q: What about the “Plant response rating, Nutsedge, Yellow” value ([9]; 125 g ai/ha) of the same molecule?
A: 10

Q: What about the “Plant response rating, Nutsedge, Yellow” value ([9]; 250 g ai/ha) of the same molecule?
A: 10

Q: What about the “Plant response rating, Oat, Wild” value ([10]; 31 g ai/ha) of the same molecule?
A: 0

Q: And the “Plant response rating, Oat, Wild” value ([10]; 62 g ai/ha)?
A: 0

Q: What about the “Plant response rating, Oat, Wild” value ([10]; 125 g ai/ha) of the same molecule?
A: 0

Q: And the “Plant response rating, Oat, Wild” value ([10]; 250 g ai/ha)?
A: 5

Q: What about the “Plant response rating, Oilseed Rape” value ([11]; 31 g ai/ha) of the same molecule?
A: 0

Q: And the “Plant response rating, Oilseed Rape” value ([11]; 62 g ai/ha)?
A: 0

Q: What about the “Plant response rating, Oilseed Rape” value ([11]; 125 g ai/ha) of the same molecule?
A: 30

Q: What about the “Plant response rating, Oilseed Rape” value ([11]; 250 g ai/ha) of the same molecule?
A: 30

Q: What about the “Plant response rating, Pigweed” value ([12]; 31 g ai/ha) of the same molecule?
A: 10

Q: And the “Plant response rating, Pigweed” value ([12]; 62 g ai/ha)?
A: 10

Q: What about the “Plant response rating, Pigweed” value ([12]; 125 g ai/ha) of the same molecule?
A: 35

Q: And the “Plant response rating, Pigweed” value ([12]; 250 g ai/ha)?
A: 30

Q: And the “Plant response rating, Ryegrass, Italian” value ([13]; 31 g ai/ha)?
A: 0

Q: And the “Plant response rating, Ryegrass, Italian” value ([13]; 62 g ai/ha)?
A: 0

Q: What about the “Plant response rating, Ryegrass, Italian” value ([13]; 125 g ai/ha) of the same molecule?
A: 0

Q: What about the “Plant response rating, Ryegrass, Italian” value ([13]; 250 g ai/ha) of the same molecule?
A: 0

Q: And the “Plant response rating, Waterhemp” value ([14]; 31 g ai/ha)?
A: 0

Q: What about the “Plant response rating, Waterhemp” value ([14]; 62 g ai/ha) of the same molecule?
A: 0

Q: What about the “Plant response rating, Waterhemp” value ([14]; 125 g ai/ha) of the same molecule?
A: 20

Q: What about the “Plant response rating, Waterhemp” value ([14]; 250 g ai/ha) of the same molecule?
A: 30

Q: What about the “Plant response rating, Wheat” value ([15]; 31 g ai/ha) of the same molecule?
A: 0

Q: What about the “Plant response rating, Wheat” value ([15]; 62 g ai/ha) of the same molecule?
A: 0

Q: What about the “Plant response rating, Wheat” value ([15]; 125 g ai/ha) of the same molecule?
A: 0

Q: And the “Plant response rating, Wheat” value ([15]; 250 g ai/ha)?
A: 0
